Results on two compounds are retold here after publication PMC11986975, “A Cdk5 inhibitor restores cognitive function and alleviates type 2 diabetes in mice” (iScience, 2025).

Molecules are shown by their SMILES.

One series deals with Cdk5/p35 (Homo sapiens, UniProt Q00535). In words: Cdk5 kinase assay (ADP-Glo) with Cdk5/p35 complex. The class given is biochemical. To be noted: 10 μM ATP, histone substrate, inhibitor 0-100 nM. The method, then: The test tube Cdk5 Kinase assay was performed utilizing Cdk5/p35 and Cdk5/p25 complexes as kinases, following the modified procedure outlined in a previous study,[52] using a Promega ADP-GloTM Kinase Assay kit. The reaction was carried out with 10 μM ATP and 2 μg of histone as the substrate for Cdk5 complexes. To study the inhibition patterns, 19 Cdk5 inhibitors (BLINK1-19) identified through molecular docking were added to the Cdk5 kinase reaction in increasing concentrations ranging from 0 to 100 nM. The IC50 (half-maximal inhibitory concentration) values of all the inhibitors were calculated based on Log(inhibitor) vs. normalized response using GraphPad software.

Series [1] is described as follows: MTT cell toxicity assay in N2A cells. The class given is cell-based. To be noted: mouse, N2A (Neuro2A) cells, all doses (25 to 100 μM). On the procedure:
(§1) HEK293T, HepG2, and N2A cells were used in the study representing kidney, liver and neuronal cell lines respectively. The cells were cultured in DMEM supplemented with 10% fetal bovine serum and antibiotics at 37°C under 5% CO2. The cells were tested negative for mycoplasma.
(§2) To evaluate the compound toxicity for the Cdk5 inhibitors, an MTT assay was performed in HEK293T, HepG2, and N2A cells at varying concentrations. Six hours after cell seeding, the compounds were added in different amounts, and the cells were harvested after 24 h for further analysis. N2A cells were transfected using Lipofectamine-3000 reagent, co-transfecting with plasmids encoding Cdk5/p35 and Cdk5/p25 for 12 h, followed by inhibitor treatment to assess their effects in the cell culture system. The concentrations of each plasmids used was 1 μg, total of 3 μg per well for 6 well plates.
For orientation: Formazan colour is commonly taken as a measure of viable cells.

Series [2] in a line: MTT cell toxicity assay in HepG2 cells. The class given is cell-based. The following applies: human, all doses (25 to 100 μM). On the procedure: as §1, §2
Series [3] can be described thus: MTT cell toxicity assay in HEK293T cells. To be noted: human, all doses (25 to 100 μM). The class given is cell-based. The method, then: as §1, §2
Series [4] has as its system HFD-fed mice. Kind of series: Glucose tolerance test (GTT) in HFD mice. In kind it is in vivo. To be noted: i.p., both dosages 20 and 40 mg/kg/day, 20 days. The method, then:
For the glucose tolerance test, 2 g/kg of glucose was utilized, and 0.75U/kg of human insulin was employed The glucose tolerance test (GTT) and insulin tolerance test (ITT) were performed in HFD mice models after 20 weeks of HFD feeding followed by 20 days of drug administration.[48] For GTT the mice were kept in a fasting period for overnight before glucose injections of 2 g/kg intraperitoneally. For ITT the mice were kept in a fasting for 6 h prior to insulin injection of 0.75 U/kg intraperitoneally. A one-touch glucometer was used to assess the blood sugar levels at various intervals (0, 60, and 120 min) following intraperitoneal infusion of both glucose and insulin.[23]^,[49]^,[50]^,[51] After 20 weeks of a HFD and 20 days of drug administration, the tests were carried out.

Series [5] deals with HFD-fed mice. In words: Rotarod test in HFD mice. The class given is in vivo. The following applies: i.p., 20 days. On the procedure: Rats and mice have been tested for motor coordination using the rotarod test. The animals were placed on a horizontal rod that rotates around its long axis for this test; in order to remain upright and prevent sliding off, the animal must move ahead. Every 5 min, the rod’s speed was raised, and the number of falls were counted to assess the motor coordination.[23]^,[55]

Series [6] deals with HFD-fed mice. In words: Y-maze test in HFD mice. The class given is in vivo. The following applies: i.p., 20 days. On the procedure: As previously mentioned, the Y-maze test was utilized to evaluate the mouse groups' short-term spatial memory The Y-maze test was used to assess short-term spatial memory in the mouse groups. The apparatus consists of three arms arranged in a Y-shape, typically labeled A, B, and C, with each arm having the same length and width. Mice were initially placed in one arm (usually arm A) and allowed to explore freely for 5 min, with one of the other arms blocked off, restricting exploration to the starting arm and the remaining open arm. After a 5-min delay, the mouse was reintroduced to the maze with all arms accessible. The time spent in each arm and the number of entries into each arm were recorded over a 5-min period. […] We also evaluated the mice’s spontaneous alternation rate during the Y-maze test. Spontaneous alternation reflects working memory, as it refers to the mouse’s tendency to enter a less recently visited arm. The sequence and number of arm entries were tracked, with an alternation defined as consecutive entries into all three arms without repetition (e.g., A-B-C, B-C-A).[59]^,[60]^,[61] […] As a result, we evaluated the novel arm’s exploration according to many criteria.Spontaneous Alternation (%) = {(Number of alternations)/ (Total arm entries−2)} ×100

Series [7] has as its system neurodegenerative markers in hippocampus. In words: Western blot of hippocampal proteins (Cdk5, p35/p25, NF-H, p-NF-H, NF-L, tau, p-tau) in treated HFD mice. The class given is in vivo. To be noted: i.p. The method, then:
For tissue lysate preparation the mice were sacrificed following the Institution’s ethical guidelines. The hippocampus was isolated from the rest of the brain and treated in a tissue lysis solution with a protease and phosphatase inhibitor cocktail. Western blotting was performed to study the expression patterns of the protein of interest. Each well of a polyacrylamide gel was loaded with an identical amount of protein lysate (40–50 μg), which was then transferred to the nitrocellulose membrane. In 1X PBS with 0.1% (v/v) Tween 20, the main antibodies were diluted.
A general note: A western blot detects proteins with antibodies after separation by electrophoresis.

The test system of the next series is amyloid beta (Aβ) 1–42. In words: Amyloid beta 1-42 in hippocampus of treated HFD mice (ELISA and immunohistochemistry). In kind it is in vivo. To be noted: i.p., 40 mg/kg. On the technique in general: An ELISA detects its analyte on a solid surface through an enzyme-linked reagent.

Cdk5/p35, sequence (Q00535 whole entry, species assumed): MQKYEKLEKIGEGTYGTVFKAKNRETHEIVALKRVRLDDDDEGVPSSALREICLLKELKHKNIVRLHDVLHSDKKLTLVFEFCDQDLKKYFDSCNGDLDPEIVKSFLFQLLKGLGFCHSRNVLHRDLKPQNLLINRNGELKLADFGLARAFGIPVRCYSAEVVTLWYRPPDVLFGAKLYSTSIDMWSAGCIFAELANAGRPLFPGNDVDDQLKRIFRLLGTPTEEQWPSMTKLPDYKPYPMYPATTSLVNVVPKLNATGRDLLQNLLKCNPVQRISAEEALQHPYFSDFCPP
Cdk5/p35, sequence (Q15078 whole entry partner, species assumed): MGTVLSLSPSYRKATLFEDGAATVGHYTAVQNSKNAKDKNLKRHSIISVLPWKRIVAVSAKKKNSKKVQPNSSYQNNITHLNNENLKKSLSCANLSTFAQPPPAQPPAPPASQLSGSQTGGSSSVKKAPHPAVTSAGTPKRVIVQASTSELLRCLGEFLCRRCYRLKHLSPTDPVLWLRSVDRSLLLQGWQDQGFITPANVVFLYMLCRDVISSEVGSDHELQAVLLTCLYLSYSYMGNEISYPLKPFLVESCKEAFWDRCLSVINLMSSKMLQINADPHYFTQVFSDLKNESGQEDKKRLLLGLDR

For `O=C(COc1ccccc1C(=O)Nc1cccc(Cl)c1Cl)Nc1ccc(N2CCOCC2)c(Cl)c1` [BLINK11, 2-(2-((3-chloro-4-morpholinophenyl)amino)-2-oxoethoxy)-N-(2,3-dichlorophenyl)benzamide], on Cdk5/p35, half-maximal inhibition (IC50) was put at 17.1 nM. The viability at 24 h in series [1], in series [2] and in series [3] was above 50% each time. In the series with HFD-fed mice [4], the “Glucose tolerance test (GTT)” value was “significant rescue”. Also, the “Muscle strength and motor coordination on the rotarod” value with HFD-fed mice [5] is given as “rescue effect”. Also, the Y-maze alteration percentage result in the series on HFD-fed mice [6] (20 mg/kg/day) is reported as “did not exhibit any rescue effect”; in the series with HFD-fed mice [6] (40 mg/kg/day), “the decrease in alteration percentage was recovered”. Moreover, the “Hippocampal expression levels of CDK5” value in series [7] (20 days) is “remain unaltered”. For the same compound, the “neurofilament light chain (NF-L) levels in hippocampus” value in series [7] (20 days) is reported as “restored”. Also, the “p25 generation in hippocampus” value in series [7] (20 days) is listed as “remains unchanged”. For the same compound, the “phospho-tau-396Ser levels in hippocampus” value in series [7] (20 days) is listed as “significantly decreased”. For the same compound, the “phospho-NF-H levels in hippocampus” value in series [7] (particularly at a higher dose) is reported as “significantly reduced”. Also, in the series with amyloid beta (Aβ) 1–42, the “Aβ 1–42 accumulation in the hippocampus” value is on record as “significantly reduced”.

For the compound `COc1ccc(C(=O)C[C@@]2(O)C(=O)N(Cc3ccccc3)c3ccc(Br)cc32)cc1[N+](=O)[O-]` [BLINK15], on Cdk5/p35, half-maximal inhibition (IC50) was put at 29.3 nM. Besides, the viability at 24 h in series [1], in series [2] and in series [3] was above 50% throughout. Further, in the series on HFD-fed mice [4], the “Glucose tolerance test (GTT)” value is reported as “significant rescue”. Further, the “Hippocampal expression levels of CDK5” value in [7] (20 days) is “remain unaltered”. Moreover, the “p25 generation in hippocampus” value in series [7] (20 days) was “remains unchanged”.
